# From ChEMBL document CHEMBL5465560, “Selectivity Literature for EUbOPEN Chemogenomic Library” (2024)
# Tests used:
# [1] = target: T1, Serine/threonine-protein kinase Sgk3 (Homo sapiens) (UniProt Q96BR1); assay: Selectivity interaction (KinomeScan (DiscoverX)) EUB0000666a SGK3; conditions: at 10 µM
# T1 sequence (whole entry): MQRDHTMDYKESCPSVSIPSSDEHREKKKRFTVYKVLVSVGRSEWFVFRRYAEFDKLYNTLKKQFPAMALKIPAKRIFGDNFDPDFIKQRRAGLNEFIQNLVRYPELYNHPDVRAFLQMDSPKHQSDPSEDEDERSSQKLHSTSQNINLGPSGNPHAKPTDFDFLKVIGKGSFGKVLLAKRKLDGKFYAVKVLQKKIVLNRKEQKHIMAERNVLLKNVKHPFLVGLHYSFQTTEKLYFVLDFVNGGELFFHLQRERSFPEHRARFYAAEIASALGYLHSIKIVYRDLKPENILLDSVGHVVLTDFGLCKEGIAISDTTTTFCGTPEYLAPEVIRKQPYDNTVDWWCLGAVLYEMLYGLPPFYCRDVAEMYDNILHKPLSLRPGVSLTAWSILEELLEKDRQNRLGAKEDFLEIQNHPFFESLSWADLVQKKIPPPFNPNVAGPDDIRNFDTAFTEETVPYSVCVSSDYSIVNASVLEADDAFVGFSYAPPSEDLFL
# [2] = target: Cell division control protein 42 homolog (Homo sapiens) (UniProt P60953); assay: Selectivity interaction (Kinase panel (Invitrogen)) EUB0000639a CDC42; conditions: at 200 nM
# [3] = target: Mitogen-activated protein kinase 9 (Homo sapiens, UniProt P45984); assay: Selectivity interaction (ActivX KiNativ screen (kinase selectivity in THP-1 cell lysates)) EUB0000639a MAPK9; assay type: subcellular; conditions: lysate
# [4] = target: T2, Dual specificity tyrosine-phosphorylation-regulated kinase 2 (Homo sapiens) (UniProt Q92630); assay: Selectivity interaction (Kinase screening (Nanosyn)) EUB0000604a DYRK2
# T2 sequence (whole entry): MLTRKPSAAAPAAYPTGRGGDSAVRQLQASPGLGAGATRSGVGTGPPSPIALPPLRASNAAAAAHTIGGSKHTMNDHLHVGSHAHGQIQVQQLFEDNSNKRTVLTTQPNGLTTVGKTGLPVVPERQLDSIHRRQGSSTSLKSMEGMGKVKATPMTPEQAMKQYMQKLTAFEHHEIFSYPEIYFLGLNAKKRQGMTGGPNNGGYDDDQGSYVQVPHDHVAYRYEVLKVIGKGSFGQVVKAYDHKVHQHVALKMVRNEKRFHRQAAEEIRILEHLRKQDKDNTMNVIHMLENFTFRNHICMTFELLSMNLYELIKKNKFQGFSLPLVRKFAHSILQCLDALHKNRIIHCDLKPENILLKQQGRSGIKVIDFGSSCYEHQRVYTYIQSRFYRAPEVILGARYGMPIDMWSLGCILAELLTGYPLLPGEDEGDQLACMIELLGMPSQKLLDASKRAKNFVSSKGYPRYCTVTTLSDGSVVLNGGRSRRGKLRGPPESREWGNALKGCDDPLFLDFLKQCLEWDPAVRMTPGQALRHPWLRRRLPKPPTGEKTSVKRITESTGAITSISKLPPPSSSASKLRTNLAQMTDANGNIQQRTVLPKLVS
# [5] = target: Myosin light chain kinase 2, skeletal/cardiac muscle (Homo sapiens) (UniProt Q9H1R3); assay: Selectivity interaction (KinomeScan (DiscoverX)) EUB0000607a MYLK2; conditions: at 10 µM
# [6] = target: T3, Dual specificity protein kinase TTK (Homo sapiens) (UniProt P33981); assay: Selectivity interaction (LanthaScreen Eu Kinase Binding Assay) EUB0001632a TTK; conditions: at 10 µM
# T3 sequence (whole entry): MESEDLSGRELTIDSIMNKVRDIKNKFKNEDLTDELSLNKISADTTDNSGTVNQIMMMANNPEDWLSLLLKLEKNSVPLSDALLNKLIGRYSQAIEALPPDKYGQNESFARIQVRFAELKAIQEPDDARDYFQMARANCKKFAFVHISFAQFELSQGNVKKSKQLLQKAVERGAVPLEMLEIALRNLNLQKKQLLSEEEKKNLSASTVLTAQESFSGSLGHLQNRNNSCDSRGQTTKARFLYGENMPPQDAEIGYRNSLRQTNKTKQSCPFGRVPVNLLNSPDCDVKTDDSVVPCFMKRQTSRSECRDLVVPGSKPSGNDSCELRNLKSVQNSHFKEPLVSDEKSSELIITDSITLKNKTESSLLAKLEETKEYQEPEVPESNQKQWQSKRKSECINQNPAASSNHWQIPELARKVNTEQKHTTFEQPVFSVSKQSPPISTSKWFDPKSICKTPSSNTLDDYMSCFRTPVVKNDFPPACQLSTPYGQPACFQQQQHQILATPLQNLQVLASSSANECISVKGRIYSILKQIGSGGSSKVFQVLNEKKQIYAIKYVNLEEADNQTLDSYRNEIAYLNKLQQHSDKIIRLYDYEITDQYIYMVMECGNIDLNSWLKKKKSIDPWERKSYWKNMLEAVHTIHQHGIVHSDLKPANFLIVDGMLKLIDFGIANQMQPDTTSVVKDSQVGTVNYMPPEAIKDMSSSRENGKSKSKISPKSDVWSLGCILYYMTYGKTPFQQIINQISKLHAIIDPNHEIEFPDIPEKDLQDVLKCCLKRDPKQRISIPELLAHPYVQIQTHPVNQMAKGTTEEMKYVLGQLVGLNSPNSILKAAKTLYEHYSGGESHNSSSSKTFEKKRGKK
# Mitogen-activated protein kinase 9, sequence (P45984 whole entry, looked up): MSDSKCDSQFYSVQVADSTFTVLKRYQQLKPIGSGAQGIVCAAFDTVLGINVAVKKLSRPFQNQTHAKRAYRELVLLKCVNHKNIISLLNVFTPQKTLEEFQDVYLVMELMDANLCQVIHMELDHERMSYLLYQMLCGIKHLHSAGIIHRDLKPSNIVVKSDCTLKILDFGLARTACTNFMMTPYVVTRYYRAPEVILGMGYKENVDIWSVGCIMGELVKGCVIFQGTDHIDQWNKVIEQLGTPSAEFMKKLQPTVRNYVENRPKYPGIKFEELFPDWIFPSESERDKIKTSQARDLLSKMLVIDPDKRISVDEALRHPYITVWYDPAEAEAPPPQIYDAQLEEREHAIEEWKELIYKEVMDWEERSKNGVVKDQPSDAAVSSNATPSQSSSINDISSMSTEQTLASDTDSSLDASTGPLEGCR
# Myosin light chain kinase 2, skeletal/cardiac muscle (Homo sapiens), sequence (Q9H1R3 whole entry): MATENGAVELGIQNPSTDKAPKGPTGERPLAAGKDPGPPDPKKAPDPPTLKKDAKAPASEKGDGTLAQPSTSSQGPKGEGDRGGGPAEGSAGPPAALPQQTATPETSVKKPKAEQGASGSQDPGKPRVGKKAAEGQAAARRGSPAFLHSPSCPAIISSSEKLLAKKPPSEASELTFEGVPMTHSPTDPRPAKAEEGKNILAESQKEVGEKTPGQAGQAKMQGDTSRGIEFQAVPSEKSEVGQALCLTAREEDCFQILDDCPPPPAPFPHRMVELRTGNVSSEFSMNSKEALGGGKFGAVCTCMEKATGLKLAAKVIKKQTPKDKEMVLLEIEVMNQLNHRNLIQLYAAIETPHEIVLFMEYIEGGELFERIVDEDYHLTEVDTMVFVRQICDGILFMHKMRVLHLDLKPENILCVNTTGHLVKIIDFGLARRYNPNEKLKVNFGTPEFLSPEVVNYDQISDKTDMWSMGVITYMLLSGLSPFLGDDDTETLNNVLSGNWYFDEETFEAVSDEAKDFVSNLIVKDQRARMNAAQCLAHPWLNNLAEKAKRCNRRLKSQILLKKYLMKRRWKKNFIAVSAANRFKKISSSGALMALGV
# Cell division control protein 42 homolog (Homo sapiens), sequence (P60953 whole entry, looked up): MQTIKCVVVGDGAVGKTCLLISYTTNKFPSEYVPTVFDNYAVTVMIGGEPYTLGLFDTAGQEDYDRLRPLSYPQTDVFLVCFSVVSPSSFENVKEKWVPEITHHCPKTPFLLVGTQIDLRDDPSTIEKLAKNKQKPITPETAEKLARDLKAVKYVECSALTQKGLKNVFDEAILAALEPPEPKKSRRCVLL
smiles,measurement,setting,value
O=C(NOC[C@H](O)CO)c1ccc(F)c(F)c1Nc1ccc(I)cc1F,% of control,[1],89%
CC[C@@H]1[C@H](F)C(=O)N[C@@H]1COc1nccc2cc(C(N)=O)c(OC)cc12 [ZIMLOVISERTIB],% of inhibition,[2],13.7%
same,% of inhibition,[3]; at 0.01 µM,13.3%
same,% of inhibition,[3]; at 0.04 µM,-1.4%
same,% of inhibition,[3]; at 0.2 µM,1.6%
same,% of inhibition,[3]; at 1 µM,27.7%
same,% of inhibition,[3]; at 5 µM,57.5%
Cc1cnc(Nc2ccc(F)cc2Cl)nc1-c1c[nH]c(C(=O)N[C@H](CO)c2cccc(Cl)c2)c1,% of inhibition,[4],3%
CNC(=O)Nc1ccc(-c2nc(N3CC4CCC(C3)O4)c3cnn(C4CCC5(CC4)OCCO5)c3n2)cc1,% of control,[5],100%
Cn1cc(-n2cnc3c(NCc4nc5cc(Cl)c(Cl)cc5[nH]4)nc(N4CCOCC4)nc32)cn1,% of inhibition,[6],-54.1%
